Data on one molecule can be found in patent US20060142326A1, “Use of pyrazolopyridines for the treatment of cognitive deficits” (priority 2003, published 2006).

SMILES strings stand for the structures.

In data set [1] the test system is cortical neurons. The data set is described as follows: Toxicity induced by kainate on cortical neurons, MTT test. Type of data set: cell-based, Wistar rat. To be noted: 50 μM kainate, six hours. How it is done:
(§1) 16 day old Wistar rat embryos are taken and the cortexes dissected. Following trypsination at 37° C. for 25 minutes, the cells are dissociated by trituration. The cells are sown in minimum essential medium, supplemented with 10% horse serum and 10% foetal calf serum and 2 mM glutamine, at a density of 300,000 cells per cm^2. After 4 days in culture half of the medium is changed with minimum essential medium supplemented with 5% horse serum and 2 mM glutamine. […] After seven and eleven days of culture, half of the medium is changed with conditioned medium. The conditioned medium is made up from MEM containing 5% horse serum and 2 mM glutamine; this medium is passed over a carpet of cortical astrocytes for a night before being used. On day 14, the cells are treated with the etazolate inhibitor compound, before adding toxics, 50 μM kainate or 20 μM N-methyl-D-aspartate in the presence of 10 μM D-serine. All of the treatments are carried out at least in duplicate and in at least two different cultures. Following an incubation of six hours the toxicity is measured by an MTT test. The results, standardised to the untreated average, are statistically analysed by the Wilcoxon test. The significant value is established at ρ less than or equal to 0.05. Toxicity is measured using the MTT test. […] The absorbance at 550 nm is read and the viability percentage is calculated.
For orientation: Formazan colour is commonly taken as a measure of viable cells.

Another data set has as its system SH-SY5Y cells. The data set is described as follows: Toxicity induced by 6-hydroxydopamine (oxidative stress) on SH-SY5Y cells, MTT test. Type of data set: cell-based, human. Conditions: 6-OHDA treatment. The protocol: In this example, cells from the SH-SY5Y line were placed in culture according to the techniques known to experts in the field. These cells, derived from a human neuroblast, have properties which characterise a neuronal precursor at a premature stage of development. The toxic used is 6-hydroxydopamine (6-OHDA) which induces oxidative stress. Toxicity is measured by an MTT test.

Data set [2] has as its system cerebral infarction in rats. Description: Model of cerebral infarction in rats (occlusion of the internal carotide and medium arteries of the brain). To be noted: rat. The format is in vivo. The protocol:
The in vivo protective effect of etazolate was evaluated in a model of cerebral infarction in rats. During this study, a cerebral infarction was brought about by an intracavity occlusion of the internal carotide and the medium arteries of the brain. A group of eight rats was treated with etazolate (10 mg/kg, p.o.) before and several times after occlusion. A group of eight rats was treated with the reference compound, L-NAME (1 mg/kg, i.p.) before and several times after occlusion. A group of eight rats was only treated with the vehicle. The effects were evaluated by clinical observations, neurological function tests and by establishing the size of the infarction at the end of the study.

Data set [3] relates to ventral spinal cord cells. The data set is described as follows: Toxicity induced by NMDA/serine on ventral spinal cord cells, MTT test. Type of data set: cell-based, Wistar rat. Conditions: 25 μM NMDA + 10 μM D-serine, 3 hours. The protocol: The cells are isolated from 14 day old Wistar rat embryos. Upon their arrival, the pregnant female rats are sacrificed by means of carbon dioxide. The series of embryos is taken and placed in a box containing PBS. The spinal cord of each embryo is dissected and the ventral cord is separated from the dorsal cords. The ventral cords are then trypsinised at 37° C. for 20 mins. The effect of the trypsin is halted by the addition of a medium made up from Leibovitz 15 medium, 20% horse serum, N2 (1×) supplement, 20% glucose (3.2 mg/ml), 7.5% bicarbonate (1.8 mg/ml) and L-glutamine (2 mM). The cells are dissociated by trituration. The accumulated tissue is removed and the dissociated cells are then quantified by dying with trypan blue. The cells sown at a density of 250 000 cells/cm^2 in a medium made up from neurobasal medium, horse serum (2%), B27 (1×) supplement, and glutamine (2 mM). After 3 days of in vitro culture, an anti-mitotic agent, ARA-C (5 μM), is added to the cells so as to inhibit production of glial cells. The cells are placed in culture at 37° C. in a humidified incubator (5% CO2) for 9 days. […] The results are standardised to the average of the untreated controls and analysed statistically by means of a Wilcoxon test with ρ less than 0.05. Toxicity is measured using the MTT test. […] The absorbance at 550 nm is read and the viability percentage is calculated.

For data set [4], the system named is granular cells of the cerebellum. The data set is described as follows: Toxicity induced by NMDA/serine on granular cells of the cerebellum, MTT test. To be noted: 100 μM NMDA + 10 μM D-serine, six hours. The format is cell-based, Wistar rat. How it is done: (§2) Seven day old Wistar rats are decapitated and their cerebella are dissected. After having removed the meninges, the tissue is cut into small pieces and trypsinised for 15 minutes at 37° C. The cells are disassociated by trituration and placed in cultures at a density of 300,000 cells per cm^2 in Eagle's base medium supplemented with 10% foetal calf serum and 2 mM glutamine. The following day 10 μM ARA-C, an antimitotic, is added so as to prevent proliferation of the glial cells. The cells are treated for 9 days after placing in culture with the etazolate inhibiting compound, before adding toxics, 50 μM kainate or 100 μM N-methyl-D-aspartate in the presence of 10 μM D-serine. 8-bromo-cAMP is added just before the toxics. All of the treatments are carried out at least in duplicate and in at least two different cultures. Following an incubation of six hours, the toxicity is measured by an MTT test. The results, standardised to the untreated average, are statistically analysed by the Wilcoxon test. The significant value is established at p less than or equal to 0.05. Toxicity is measured using the MTT test. Following incubation with the compounds, MTT is added at a final concentration of 0.5 mg/ml per well. The plaques are then incubated for 30 minutes at 37° C. in the dark. […] The absorbance at 550 nm is read and the viability percentage is calculated.

The test system is the same in data set [5]. Description: Toxicity induced by kainate on granular cells of the cerebellum, MTT test. The format is cell-based, Wistar rat. To be noted: 50 μM kainate, six hours. How it is done: as §2
The subject of another data set is old rats. The data set is described as follows: Aquatic labyrinth test (Morris pool) in old rats. Type of data set: in vivo, rat. An excerpt:
This test is used to evaluate the capacities to memorise and to manage spatial information in rats in an aversive situation. The task consists for the animal of locating with the help of distance indices a <<refuge >> platform, invisible by immersion in a tank filled with opacified water. The device makes it possible to evaluate the reference memory of the animal (the platform remains in the same place on each day of the test). This test makes it possible to appreciate the […] performances dependent upon the functions of the hippocampus of the animals tested. In particular, this test makes it possible to discriminate between the performances of adult rats (10 months) and those of old rats (30 months). The hippocampus is a cerebral structure the functions of which are altered prematurely in Alzheimer's disease. The Morris pool test is therefore particularly recognised by experts in the field as making it possible to appreciate the pharmacological properties of compounds intended to treat Alzheimer's disease and other diseases associated with a cognitive deficit. Old rats treated with etazolate (3 mg/kg and 10 mg/kg) administered orally and rats treated by the vehicle were used for this study. The performances of these animals in the Morris pool test were compared to those of a control group of adult rats.

The nature of data set [6]: Single increasing oral dose study in healthy volunteers (tolerance, plasmatic dosage). Type of data set: in vivo, human. How it is done:
In this study, single, increasing doses of etazolate (0.5, 1, 2, 5, 10 and 20 mg) were administered orally in the form of capsules dosed at 0.5 and 5 mg to different and sequential groups of eight young, healthy, volunteer subjects of the male sex. This study was carried out in just one centre, double-blind, and two of the eight subjects were given a placebo. The parameters evaluated were clinical (appearance of adverse effects, of clinical signs, change in arterial pressure or heart rate), electrocardiographic (ECG recording) and biological tolerance (hematology and sanguineous biochemistry, urinary examination) for the 24 hrs following administration of the product. A plasmatic dosage of the product was carried out in each subject at different times before and after administration of the product (0.25-0.50-1.00-1.50-2.00-3.00-4.00-5.00-6.00-8.00-10.00-12.00 and 24.00 hours). A urinary dosage of the product was also carried out from urines collected before and after administration of the product (4, 4-8, 8-12 and 12-24 hours).

Data set [7] concerns cortical neurons. The data set is described as follows: Toxicity induced by NMDA/serine on cortical neurons, MTT test. Type of data set: cell-based, Wistar rat. To be noted: 20 μM NMDA + 10 μM D-serine, six hours. How it is done:
as §1

Turning to `CCOC(=O)c1cnc2c(cnn2CC)c1NN=C(C)C` [etazolate], the protective effect is 40% with cortical neurons [1]; 40% in the data set with SH-SY5Y cells; 36% in data set [3]; 40% in [4]; 50% in data set [5]; 47% in the data set with cortical neurons [7]. The “neurological evaluation relative to the control group” value in data set [2] (10 mg/kg p.o.) was “improvement”. Moreover, the “reduction of the size of the infarction relative to the control” value in data set [2] (10 mg/kg p.o. before and several times after occlusion, average) came out at 28%. The molecule further returned a hypoactivity in data set [2] (10 mg/kg p.o., control group 42%) of 31%. Further, the “performances in the Morris pool test” value in the data set on old rats (3 mg/kg orally) is recorded as “slightly improves the performances of old rats”; in the data set on old rats (10 mg/kg orally, compared to adult rats) it was “importantly brings the performances of old animals closer to those of adult animals”. Besides, in data set [6] (healthy male volunteers, single oral doses 0.5-20 mg), the secondary effects entry is given as “did not involve any secondary effects”. Also, the “tolerance (clinical, electrocardiographic, biological)” value in data set [6] (healthy male volunteers, single oral doses 0.5-20 mg, 24 hrs) is on record as “well tolerated”. In data set [6] (humans, oral capsules, at strong doses), the “absorption (plasmatic dosages)” value is listed as “good absorption”.
